Data on twelve molecules can be found in patent publication US8273766B2, “Tetrahydroisoquinoline compound” (Kowa Company, Ltd., priority 2007, dated 2012).

Structures are written as SMILES.

The target of this test is T1, CCR3 (Cavia porcellus, UniProt Q9Z2I3).
T1 construct: from tissue; host or cells: peritoneal eosinophils of polymyxin B-treated male Hartley guinea pigs (Japan SLC, Inc.)
T1 sequence (Q9Z2I3 1-358): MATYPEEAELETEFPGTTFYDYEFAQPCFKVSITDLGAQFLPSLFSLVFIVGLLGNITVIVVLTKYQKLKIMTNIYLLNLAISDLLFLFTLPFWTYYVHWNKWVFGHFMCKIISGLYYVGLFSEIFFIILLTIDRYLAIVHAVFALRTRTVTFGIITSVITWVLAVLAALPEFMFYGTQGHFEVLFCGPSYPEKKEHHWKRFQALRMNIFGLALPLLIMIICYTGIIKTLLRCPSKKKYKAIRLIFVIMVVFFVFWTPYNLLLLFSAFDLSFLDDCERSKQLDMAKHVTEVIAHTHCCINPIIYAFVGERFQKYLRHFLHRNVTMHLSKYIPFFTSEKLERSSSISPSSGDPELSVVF
Nature of the test: CCR3 antagonistic action: eotaxin-induced migration of guinea pig eosinophils (chemotaxis chamber). The format is cell-based. The note with it: inhibition of migration of guinea pig eosinophils toward guinea pig eotaxin 100 ng/mL; 30 min pretreatment at 37° C., 1 hour reaction. The method, then:
Test Example 1 Test of a CCR3 Antagonistic Action
Guinea pig eosinophils were prepared with reference to a literature (Pinkus, Blood. 52 (1978) 127-134). That is, to a six-week old male Hartley guinea pig (Japan SLC, Inc.) was intraperitoneally injected polymyxin B (SIGMA) diluted with PBS (−) at 2 mg per animal once a week. After repeating the same operation four times for 24 hours, the abdominal cavity of each individual under anesthesia with diethyl ether was injected with 50 mL of PBS (−) containing 6 U/mL of heparin and 1 mM EDTA, and the liquid was collected. It was washed with PBS (−) containing 1 mM EDTA, and the cells were suspended in a Percoll solution having a specific density of 1.070 were centrifuged using a discontinuous Percoll gradient liquid to obtain an eosinophilic crude fraction. After washing with PBS (−), they were suspended in RPMI-1640 culture medium (SIGMA) containing 1% FCS, and cultured in a CO2 incubator overnight. Next day, the cells were harvested, a compound to be tested was added to the eosinophils suspended in the RPMI-1640 culture medium containing 0.1% BSA (bovine serum albumin, SIGMA), and then pretreatment was performed by leaving it to stand still at 37° C. for 30 minutes. A mixed liquid of guinea pig eotaxin (Chemical Synthesis Services) and the compound to be tested that had been prepared to be at a final concentration of 100 ng/mL was added into a lower chamber of 96-well chemotaxis chambers (Neuroprobe), and then a mixed liquid of 12.0×10^5 eosinophils per well and the compound to be tested was sequentially set in an upper chamber of a polycarbonate filter (Neuroprobe) having a pore size of 5 μm after completion of the treatment with polyvinyl pyrrolidone (PVP), and allowed to undergo a reaction in a CO2 incubator for 1 hour. After completion of the reaction, the filter was taken out, the cells were stained in a Diff-Quik stain kit (International Reagents Co., Ltd.), and the migrated eosinophils were microscopically counted. Five fields of view per well were counted, and an average value of the counts was taken as a count of migrated eosinophils.
On to `Fc1ccc(CC2Cc3cc(F)ccc3CN2CCNCc2ccncc2)cc1` (stereo not drawn) [Example 180, N-(pyridin-4-yl)methyl-2-[6-fluoro-3-(4-fluorobenzyl)-3,4-dihydroisoquinolin-2(1H)-yl]ethanamine], for which the IC50 (usually the midpoint of a concentration-inhibition curve) worked out at 2 nM. Then `CC(=O)c1cccc(CNCCN2Cc3ccccc3CC2Cc2ccc(F)cc2)c1` (stereo not drawn) [Example 106, N-(3-acetylbenzyl)-2-[3-(4-fluorobenzyl)-3,4-dihydroisoquinolin-2(1H)-yl]ethanamine], with 7 nM; and `CCNc1ccc(CNCCN2Cc3ccc(F)cc3CC2Cc2ccc(F)cc2)cc1` (stereo not drawn) [Example 139, 4-[[2-[6-fluoro-3-(4-fluorobenzyl)-3,4-dihydroisoquinolin-2(1H)-yl]ethylamino]methyl]-N-ethylaniline], with 40 nM; and `CC(C)(C)c1ccc(CNCCN2Cc3ccc(F)cc3CC2Cc2ccc(Cl)cc2)cc1` (stereo not drawn) [Example 156, N-(4-tert-butylbenzyl)-2-[3-(4-chlorobenzyl)-6-fluoro-3,4-dihydroisoquinolin-2(1H)-yl]ethanamine], with 80 nM. With `COCCNc1ccc(CNCCN2Cc3ccc(F)cc3CC2Cc2ccc(F)cc2)cc1` (stereo not drawn) [Example 150, 4-[[2-[6-fluoro-3-(4-fluorobenzyl)-3,4-dihydroisoquinolin-2(1H)-yl]ethylamino]methyl]-N-(2-methoxyethyl)aniline], the IC50 is 4 nM. `Fc1ccc(CC2Cc3ccccc3CN2CCNCc2ccncc2)cc1` (stereo not drawn) [Example 171, N-(pyridin-4-yl)methyl-2-[3-(4-fluorobenzyl)-3,4-dihydroisoquinolin-2(1H)-yl]ethanamine]: the IC50 turned out to be 14 nM. Consider `CS(=O)(=O)Nc1cccc(CNCCN2Cc3ccc(F)cc3CC2Cc2ccc(F)cc2)c1` (stereo not drawn) [Example 126, N-[3-(methanesulfonylamino)benzyl]-2-[6-fluoro-3-(4-fluorobenzyl)-3,4-dihydroisoquinolin-2(1H)-yl]ethanamine], for which the IC50 amounted to 1 nM.

As to `CC(C)(C)c1ccc(CNCCN2Cc3ccccc3CC2Cc2ccc(F)cc2)cc1` (stereo not drawn) [Example 96, N-(4-tert-butylbenzyl)-2-[3-(4-fluorobenzyl)-3,4-dihydroisoquinolin-2(1H)-yl]ethanamine], the half-inhibitory concentration (IC50) was found to be 30 nM. Next, `CS(=O)(=O)Nc1cccc(CNCCN2Cc3ccc(F)cc3CC2Cc2ccc(Cl)cc2)c1` (stereo not drawn) [Example 157, N-(3-methanesulfonylaminobenzyl)-2-[3-(4-chlorobenzyl)-6-fluoro-3,4-dihydroisoquinolin-2(1H)-yl]ethanamine]: 25 nM. Next, `CC(C)Nc1ccc(CNCCN2Cc3ccc(F)cc3CC2Cc2ccc(F)cc2)cc1` (stereo not drawn) [Example 138, 4-[[2-[6-fluoro-3-(4-fluorobenzyl)-3,4-dihydroisoquinolin-2(1H)-yl]ethylamino]methyl]-N-isopropylaniline]: 4 nM. Next, `CC(C)Nc1ccc(CNCCN2Cc3cc(F)ccc3CC2Cc2ccc(F)cc2)cc1` (stereo not drawn) [Example 161, 4-[[2-[7-fluoro-3-(4-fluorobenzyl)-3,4-dihydroisoquinolin-2(1H)-yl]ethylamino]methyl]-N-isopropylaniline]: 25 nM; `CC(C)(O)c1ccc(CNCCN2Cc3ccc(F)cc3CC2Cc2ccc(F)cc2)cc1` (stereo not drawn) [Example 154, N-[4-(1-hydroxy-1-methylethyl)benzyl]-2-[6-fluoro-3-(4-fluorobenzyl)-3,4-dihydroisoquinolin-2(1H)-yl]ethanamine]: 20 nM.
